A word on the GI50: it is the concentration giving 50% growth inhibition.

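Grown in 96-well plates, cells were treated for 48 hours with each compound at five concentrations. Insufficient inhibition: endpoint recorded as highest concentration tested. GI50 marks 50% less growth.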 Active and inactive are the calls of the source. Cut-off read from the data, not from the text of the source: active = GI50 up to about 1.1 µM and inactive = higher. Bounds are passed on as bounds.

Experimental findings from ChEMBL document CHEMBL1201862, “PubChem BioAssay data set” (2004) are described below.

Some test systems named below: SF-268; CCRF-CEM; HT-29; NCI-H226; HCT-15; M14; NCI-H522; SF-295; SF-539; K562; HOP-92; SK-MEL-28; SW-620; SN12C; A549; IGROV-1; UACC-62; HL-60.
Common to all, as to assay: DTP human tumour cell line panel, 48 h

As to `CN(C)/N=N/c1ccc(S(N)(=O)=O)cc1`, the GI50 is > 100 µM (inactive) in the test with SF-268; 6.43 µM (inactive) in the test on CCRF-CEM; > 100 µM (inactive) in the test with HT-29; > 100 µM (inactive) in the test on NCI-H226; over 100 µM in the test with HCT-15; > 100 µM (inactive) in the test on M14. The GI50 in the test on NCI-H522, in the test on SF-295, in the test on SF-539, in the test on K562, with HOP-92 and in the test on SK-MEL-28 was > 100 µM (inactive) in each case. In addition, the GI50 in the test on SW-620, with SN12C, in the test with A549, in the test on IGROV-1 and in the test on UACC-62 was > 100 µM (inactive) each time.

As to `C=CCC1(CC)C(=O)NC(=O)NC1=O` [ETALLOBARBITAL], the GI50 in the test with SF-268 is > 100 µM (inactive); in the test with CCRF-CEM it was > 100 µM (inactive); in the test on NCI-H226, > 100 µM (inactive); with HCT-15, over 100 µM; in the test with M14, > 100 µM (inactive); with NCI-H522, > 100 µM (inactive). Besides, the GI50 with SF-295 was > 10 µM (inactive); in the test on SF-539, > 100 µM (inactive); in the test with K562, > 100 µM (inactive); with SK-MEL-28 it was > 100 µM (inactive); in the test with SW-620, > 100 µM (inactive); in the test on SN12C, > 100 µM (inactive). Moreover, the GI50 in the test on A549, in the test on IGROV-1, with UACC-62 and in the test with HL-60 was > 100 µM (inactive) throughout.

On to `COc1cc(OC)c(C2CC=Cc3c(OC)cc(OC)c(OC)c32)cc1OC` (stereo not given), for which the GI50 in the test with SF-268 was > 100 µM (inactive); in the test on CCRF-CEM, > 100 µM (inactive); in the test with HT-29 it was > 100 µM (inactive); with NCI-H226 it was > 100 µM (inactive); in the test on HCT-15, over 100 µM; with M14, > 100 µM (inactive). Further, the GI50 in the test on SF-295, in the test on SF-539, in the test on K562, in the test with HOP-92, with SK-MEL-28 and in the test on SW-620 was > 100 µM (inactive) in each case. For the same compound, the GI50 in the test with SN12C, in the test with A549, in the test with IGROV-1, in the test with UACC-62 and in the test on HL-60 was > 100 µM (inactive) throughout.

Turning to `CCCCC1(C)C=C/C(=C2/C(=O)O/C(=C\C(=O)O)C2=O)O1` (stereo not given), the GI50 was > 100 µM (inactive) in the test on CCRF-CEM; > 100 µM (inactive) in the test on HT-29; > 100 µM (inactive) with NCI-H226; over 100 µM in the test on HCT-15; > 100 µM (inactive) in the test with M14; > 100 µM (inactive) in the test on SF-295. The GI50 in the test on SF-539, in the test on K562, with SK-MEL-28, in the test on SW-620, with SN12C and in the test on A549 was > 100 µM (inactive) each time. Further, the GI50 in the test on IGROV-1, in the test on UACC-62 and in the test with HL-60 was > 100 µM (inactive) each time.

With `CC(C)(C)[Si](C)(C)O/N=C\c1ccc(O[Si](C)(C)C(C)(C)C)cc1`, the GI50 in the test on SF-268 was 49.5 µM (inactive); in the test with CCRF-CEM, 49.8 µM (inactive); in the test on HT-29, 64.4 µM (inactive); in the test on HCT-15, 33.3 µM; in the test on M14, 62.1 µM (inactive); in the test with SF-295, 52.5 µM (inactive). The GI50 in the test on SF-539 was 42.5 µM (inactive); in the test with K562, 45.9 µM (inactive); in the test with SW-620 it was > 100 µM (inactive); in the test on SN12C it was 61.2 µM (inactive); with A549 it was 92.7 µM (inactive); in the test with IGROV-1, > 100 µM (inactive). Also, the GI50 is > 100 µM (inactive) with UACC-62 and 36.5 µM (inactive) in the test with HL-60.

Regarding `CCOC(=O)/C(C#N)=C\C=C1/C=CN=C2NCCN21`, the GI50 with SF-268 is > 100 µM (inactive); with CCRF-CEM it was > 100 µM (inactive); with HT-29 it was > 100 µM (inactive); in the test on NCI-H226 it was > 100 µM (inactive); in the test on HCT-15, over 100 µM; in the test with M14, > 100 µM (inactive). For the same compound, the GI50 with NCI-H522, with SF-295, in the test with SF-539, with K562, with SK-MEL-28 and with SW-620 was > 100 µM (inactive) throughout. The GI50 in the test on SN12C, in the test on A549, in the test with IGROV-1, in the test with UACC-62 and in the test on HL-60 was > 100 µM (inactive) in each case.

With `CN(C)c1ccc(-c2cc(O)c3cc4c(cc3n2)OCO4)cc1`, the GI50 was > 100 µM (inactive) with SF-268; > 100 µM (inactive) with CCRF-CEM; > 100 µM (inactive) in the test on HT-29; > 100 µM (inactive) in the test on NCI-H226; over 100 µM with HCT-15; > 100 µM (inactive) in the test with M14. Besides, the GI50 in the test on SF-295, in the test with SF-539, in the test on K562, in the test with SK-MEL-28, in the test with SW-620 and in the test with SN12C was > 100 µM (inactive) in each case. Moreover, the GI50 in the test on A549, in the test on IGROV-1, with UACC-62 and in the test on HL-60 was > 100 µM (inactive) each time.

Consider `CN(C)c1ccc2c(NCCCCCCNc3ccnc4cc(N(C)C)ccc34)ccnc2c1`, for which the GI50 is 28 µM (inactive) with SF-268; 12.7 µM (inactive) with CCRF-CEM; 19.2 µM (inactive) in the test with HT-29; over 100 µM in the test with HCT-15; 22.6 µM (inactive) in the test with M14; 6.75 µM (inactive) in the test with NCI-H522. Besides, the GI50 is 10.7 µM (inactive) with SF-295; 21.5 µM (inactive) in the test on SF-539; 2.74 µM (inactive) in the test with K562; 14.3 µM (inactive) with SK-MEL-28; 23.3 µM (inactive) with SW-620; 6.79 µM (inactive) with SN12C. In addition, the GI50 in the test with A549 is > 100 µM (inactive); in the test with UACC-62 it was > 100 µM (inactive); in the test on HL-60 it was 6.7 µM (inactive).

Take `COc1ccc(C[C@@H]2Cc3cc(OC)c(OC)cc3CN2C)cc1`: the GI50 is > 100 µM (inactive) in the test with SF-268; > 100 µM (inactive) in the test with CCRF-CEM; > 100 µM (inactive) with HT-29; over 100 µM in the test on HCT-15; > 100 µM (inactive) in the test on M14; > 100 µM (inactive) in the test on NCI-H522. Moreover, the GI50 was 57 µM (inactive) with SF-295; > 100 µM (inactive) in the test with K562; > 100 µM (inactive) in the test on SK-MEL-28; > 100 µM (inactive) with SW-620; > 100 µM (inactive) with SN12C; > 100 µM (inactive) in the test with A549.

`O=S(=O)(OI(OI(OS(=O)(=O)C(F)(F)F)c1ccccc1)c1ccccc1)C(F)(F)F`: the GI50 in the test with SF-268 is 31.3 µM (inactive); in the test with CCRF-CEM, 13.9 µM (inactive); with NCI-H226, 58.6 µM (inactive); with HCT-15 it was over 100 µM; in the test with M14, 43 µM (inactive); in the test on NCI-H522 it was 23.2 µM (inactive). In addition, the GI50 in the test on SF-295 was 21.7 µM (inactive); in the test on SF-539, 86.3 µM (inactive); in the test on K562 it was 6.43 µM (inactive); in the test on SW-620, 32 µM (inactive); with SN12C, 49.8 µM (inactive); in the test with A549, 46.8 µM (inactive). In addition, the figures for the GI50 with IGROV-1, in the test on UACC-62 and with HL-60 were 55.8 µM (inactive), 64.4 µM (inactive) and 4.33 µM (inactive), respectively.

As to `Cc1cccc(N2C(=O)C(=O)C(c3nc4ccccc4s3)/C(=N/NC(=S)NN)C2=O)c1C` (stereo not given), the GI50 in the test on SF-268 was > 100 µM (inactive); in the test with NCI-H226, > 100 µM (inactive); in the test with HCT-15, over 100 µM; in the test on M14 it was > 100 µM (inactive); with NCI-H522 it was > 100 µM (inactive); in the test on SF-295, > 100 µM (inactive). Also, the GI50 in the test on SF-539, in the test with K562, in the test on HOP-92, in the test on SK-MEL-28, with SW-620 and in the test with SN12C was > 100 µM (inactive) in each case. Also, the GI50 with IGROV-1 and in the test with UACC-62 was > 100 µM (inactive) in each case.

On to `COc1c(C(=O)c2ccc([N+](=O)[O-])cc2)cc(C(C)(C)C)cc1C(C)(C)C`, for which the GI50 is 34.4 µM (inactive) with SF-268; 26.7 µM (inactive) with CCRF-CEM; 28.7 µM (inactive) in the test on HT-29; 32 µM in the test with HCT-15; 22.9 µM (inactive) with M14; 21.5 µM (inactive) in the test with NCI-H522. Besides, the GI50 in the test with SF-295 was 39.1 µM (inactive); with SF-539, 64.4 µM (inactive); in the test on K562, 25.6 µM (inactive); with SK-MEL-28, 22.8 µM (inactive); with SW-620, 48.6 µM (inactive); in the test with SN12C it was 39 µM (inactive). The GI50 was 31 µM (inactive) with A549, 72.4 µM (inactive) with IGROV-1, 16.7 µM (inactive) in the test on UACC-62 and 13.9 µM (inactive) in the test on HL-60.

As for `Cc1cc2c(cc1C)NC(=O)C(NC(=O)/C=C/c1ccccc1)C=N2` (stereo not given), the GI50 is 29.9 µM (inactive) with SF-268; 3.56 µM (inactive) in the test on CCRF-CEM; 95.3 µM (inactive) with NCI-H226; 17.7 µM in the test on HCT-15; 34 µM (inactive) in the test on M14; 16.3 µM (inactive) with NCI-H522. Also, the GI50 is 50.8 µM (inactive) in the test on SF-295; 24.8 µM (inactive) with SF-539; 22.5 µM (inactive) in the test with K562; 72.3 µM (inactive) in the test on SK-MEL-28; 4.73 µM (inactive) in the test on SW-620; 38.8 µM (inactive) in the test with SN12C. The GI50 in the test with A549 was 30.7 µM (inactive); in the test on IGROV-1, 34.8 µM (inactive); with UACC-62 it was 34.8 µM (inactive); with HL-60 it was 21.9 µM (inactive).
